Experimental data reported in the supplement of paper PMC11061612.

Legend:
Experiment in all cases: combination Emax (second highest fraction inhibited in the dose matrix, 72 h); higher = more inhibition; extreme values may be limits of the assay
[1] = system: 697 (B-Lymphoblastic Leukemia)
Outline: (§1)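 After 24 hours at 37°C and 5% CO2 in 1536-well plates, cells in DMEM/F12 or RPMI plus 10% FBS received two-drug dose matrices for 72 hours. Viability came from CellTiter-Glo 2.0 luminescence and was scaled as inhibition, anchored at 0 by vehicle wells and at 1 by blank wells. Combination Emax is taken as the second-highest inhibition in the matrix, and Bliss excess as the observed combination effect less EA + EB − EA·EB, with EA and EB the single-agent effects.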

[2] = system: C3A (Hepatocellular Carcinoma)
Outline: as §1

[3] = system: DOV13 (Ovarian Carcinoma)
Outline: as §1

[4] = system: JiyoyeP-2003 (Burkitt's Lymphoma)
Outline: as §1

[5] = system: KARPAS-1106P (B-Cell Non-Hodgkin's Lymphoma)
Outline: as §1

[6] = system: KATOIII (Gastric Carcinoma)
Outline: as §1

[7] = system: LS-513 (Colorectal Carcinoma)
Outline: as §1

[8] = system: MDA-MB-157 (Breast Carcinoma)
Outline: as §1

[9] = system: MFH-ino (Other Solid Carcinomas)
Outline: as §1

[10] = system: NCI-H1299 (Non-Small Cell Lung Carcinoma)
Outline: as §1

[11] = system: NCI-H1694 (Small Cell Lung Carcinoma)
Outline: as §1

[12] = system: NCI-H1793 (Lung Adenocarcinoma)
Outline: as §1

SK-N-FI (Neuroblastoma) = system: SK-N-FI (Neuroblastoma)
Outline: as §1

SN12C (Kidney Carcinoma) = system: SN12C (Kidney Carcinoma)
Outline: as §1

[13] = system: SW1088 (Low Grade Glioma)
Outline: as §1

[14] = system: SW1783 (Low Grade Glioma)
Outline: as §1

[15] = system: SW1990 (Pancreatic Carcinoma)
Outline: as §1

[16] = system: SW756 (Cervical Carcinoma)
Outline: as §1

[17] = system: SW780 (Bladder Carcinoma)
Outline: as §1

[18] = system: TE-5 (Esophageal Squamous Cell Carcinoma)
Outline: as §1

SMILES	combination Emax [1]	combination Emax [2]	combination Emax [3]	combination Emax [4]	combination Emax [5]	combination Emax [6]	combination Emax [7]	combination Emax [8]	combination Emax [9]	combination Emax [10]	combination Emax [11]	combination Emax [12]	combination Emax (SK-N-FI (Neuroblastoma))	combination Emax (SN12C (Kidney Carcinoma))	combination Emax [13]	combination Emax [14]	combination Emax [15]	combination Emax [16]	combination Emax [17]	combination Emax [18]
C=CCn1c(=O)c2cnc(Nc3ccc(N4CCN(C)CC4)cc3)nc2n1-c1cccc(C(C)(C)O)n1 [AZD1775] + O=C(c1cc(Cc2n[nH]c(=O)c3ccccc23)ccc1F)N1CCN(C(=O)C2CC2)CC1 [Olaparib] (first compound max 1 µM, partner max 10 µM)	1	0.55	0.802	0.915	0.872	0.198	0.827	0.723	0.413	0.792	0.404	0.379	0.715	0.335	0.59	0.342	0.404	0.35	0.209	0.411
CCN(CCO)CCCOc1ccc2c(Nc3cc(CC(=O)Nc4cccc(F)c4)[nH]n3)ncnc2c1 [AZD2811] + C=CCn1c(=O)c2cnc(Nc3ccc(N4CCN(C)CC4)cc3)nc2n1-c1cccc(C(C)(C)O)n1 [AZD1775] (first compound max 1 µM, partner max 1 µM)	1	0.421	0.823	0.926	0.842	0.221	0.703	0.729	0.183	0.763	0.374	0.359	0.666	0.175	0.47	0.193	0.458	0.407	0.186	0.313
CCN(CCO)CCCOc1ccc2c(Nc3cc(CC(=O)Nc4cccc(F)c4)[nH]n3)ncnc2c1 [AZD2811] + C[C@@H]1COCCN1C2=NC(=NC(=C2)C3(CC3)[S@](=N)(=O)C)C4=C5C=CNC5=NC=C4 [AZD6738] (first compound max 1 µM, 7x7, partner max 10 µM)	1	0.464	0.873	0.93	0.711	0.424	0.746	0.894	0.529	0.642	0.73	0.327	0.687	0.212	0.566	0.321	0.513	0.171	0.334	0.476
CCN(CCO)CCCOc1ccc2c(Nc3cc(CC(=O)Nc4cccc(F)c4)[nH]n3)ncnc2c1 [AZD2811] + O=C(c1cc(Cc2n[nH]c(=O)c3ccccc23)ccc1F)N1CCN(C(=O)C2CC2)CC1 [Olaparib] (first compound max 1 µM, 7x7, partner max 10 µM)	1	0.253	0.483	0.315	0.535	0.12	0.404	0.251	0.338	0.303	0.276	0.0897	0.171	0.273	0.616	0.201	0.168	0.0979	0.242	0.184
CN(CCO)CC[C@H](CSc1ccccc1)Nc1ccc(S(=O)(=O)NC(=O)c2ccc(N3CCC([C@@H](O)c4ccccc4-c4ccc(Cl)cc4)CC3)cc2)cc1S(=O)(=O)C(F)(F)F [AZD4320] + C1CN(CCC1(C(=O)N[C@@H](CCO)C2=CC=C(C=C2)Cl)N)C3=NC=NC4=C3C=CN4 [Capivasertib] (first compound max 1 µM, 7x7, partner max 3 µM)	1	0.292	0.812	0.773	0.16	0.128	0.324	0.0801	0.182	0.129	0.763	0.195	0.228	0.0749	0.423	0.44	0.0829	0.143	0.578	0.321
CN(CCO)CC[C@H](CSc1ccccc1)Nc1ccc(S(=O)(=O)NC(=O)c2ccc(N3CCC([C@@H](O)c4ccccc4-c4ccc(Cl)cc4)CC3)cc2)cc1S(=O)(=O)C(F)(F)F [AZD4320] + C=CCn1c(=O)c2cnc(Nc3ccc(N4CCN(C)CC4)cc3)nc2n1-c1cccc(C(C)(C)O)n1 [AZD1775] (first compound max 1 µM, partner max 1 µM)	1	0.631	0.999	0.992	0.963	0.206	0.866	0.67	0.237	0.88	0.906	0.449	0.629	0.322	0.391	0.531	0.757	0.399	0.457	0.663
